From ChEMBL document CHEMBL4507276 (2021)

Legend:
[1] = target: Serine/threonine-protein kinase ULK2 (Homo sapiens) (UniProt Q8IYT8); settings: Compound concentration 1000.0 nM
[2] = target: Serine/threonine-protein kinase 25 (Homo sapiens) (UniProt O00506); settings: Compound concentration 1000.0 nM
[3] = target: T1, Tyrosine-protein kinase TXK (Homo sapiens) (UniProt P42681); settings: Compound concentration 1000.0 nM
T1 sequence (whole entry): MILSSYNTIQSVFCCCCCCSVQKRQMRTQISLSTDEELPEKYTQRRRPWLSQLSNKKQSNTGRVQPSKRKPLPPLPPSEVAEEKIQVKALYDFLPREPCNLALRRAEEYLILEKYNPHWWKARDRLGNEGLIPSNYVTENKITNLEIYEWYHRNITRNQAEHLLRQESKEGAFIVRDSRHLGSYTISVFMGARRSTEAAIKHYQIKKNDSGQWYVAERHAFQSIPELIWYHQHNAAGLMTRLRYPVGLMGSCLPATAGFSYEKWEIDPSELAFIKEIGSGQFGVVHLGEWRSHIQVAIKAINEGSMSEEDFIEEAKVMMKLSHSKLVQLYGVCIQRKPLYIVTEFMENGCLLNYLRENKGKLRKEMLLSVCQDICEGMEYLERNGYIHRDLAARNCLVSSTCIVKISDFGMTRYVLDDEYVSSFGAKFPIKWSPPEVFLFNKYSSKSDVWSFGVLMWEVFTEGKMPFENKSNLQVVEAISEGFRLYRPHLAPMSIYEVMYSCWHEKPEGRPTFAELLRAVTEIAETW

[4] = target: Phosphatidylinositol 5-phosphate 4-kinase type-2 gamma (Homo sapiens) (UniProt Q8TBX8); settings: Compound concentration 1000.0 nM
[5] = test system: Epidermal growth factor receptor (Homo sapiens), P00533 [L861Q]; settings: Compound concentration 1000.0 nM
[6] = target: Cyclin-dependent kinase 2 homolog (Plasmodium falciparum (isolate 3D7)) (UniProt P61075); settings: Compound concentration 1000.0 nM
[7] = target: T2, Serine/threonine-protein kinase 17A (Homo sapiens) (UniProt Q9UEE5); settings: Compound concentration 1000.0 nM
T2 sequence (whole entry): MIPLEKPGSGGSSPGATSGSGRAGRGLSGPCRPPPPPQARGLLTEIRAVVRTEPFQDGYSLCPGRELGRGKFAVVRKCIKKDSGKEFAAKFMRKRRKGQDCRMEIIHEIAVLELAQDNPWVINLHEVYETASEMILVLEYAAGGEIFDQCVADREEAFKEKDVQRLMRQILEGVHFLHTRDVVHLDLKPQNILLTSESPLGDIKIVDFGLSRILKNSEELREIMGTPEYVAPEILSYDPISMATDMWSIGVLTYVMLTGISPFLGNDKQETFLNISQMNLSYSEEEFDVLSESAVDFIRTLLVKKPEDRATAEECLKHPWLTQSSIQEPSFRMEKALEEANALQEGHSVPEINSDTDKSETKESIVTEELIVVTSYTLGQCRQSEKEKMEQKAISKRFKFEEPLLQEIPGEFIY

[8] = target: T3, 5-hydroxytryptamine receptor 2C (Homo sapiens) (UniProt P28335); settings: Compound concentration 10.0 uM
T3 sequence (whole entry): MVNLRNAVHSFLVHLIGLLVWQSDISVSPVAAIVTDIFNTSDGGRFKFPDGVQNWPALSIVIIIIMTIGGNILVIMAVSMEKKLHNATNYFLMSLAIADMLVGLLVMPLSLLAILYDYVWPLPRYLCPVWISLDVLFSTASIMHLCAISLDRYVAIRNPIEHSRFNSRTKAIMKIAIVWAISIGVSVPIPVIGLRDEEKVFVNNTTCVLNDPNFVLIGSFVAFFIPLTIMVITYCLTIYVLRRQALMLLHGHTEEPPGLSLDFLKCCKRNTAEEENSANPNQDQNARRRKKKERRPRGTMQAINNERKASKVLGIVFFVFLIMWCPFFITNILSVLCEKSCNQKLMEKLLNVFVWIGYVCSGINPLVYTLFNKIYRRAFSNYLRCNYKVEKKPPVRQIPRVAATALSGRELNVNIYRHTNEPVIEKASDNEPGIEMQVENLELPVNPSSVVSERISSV

[9] = target: Mitogen-activated protein kinase 6 (Homo sapiens) (UniProt Q16659); settings: Compound concentration 1000.0 nM
Sequence of Mitogen-activated protein kinase 6 (Homo sapiens) (Q16659 whole entry, the tested form may be a part): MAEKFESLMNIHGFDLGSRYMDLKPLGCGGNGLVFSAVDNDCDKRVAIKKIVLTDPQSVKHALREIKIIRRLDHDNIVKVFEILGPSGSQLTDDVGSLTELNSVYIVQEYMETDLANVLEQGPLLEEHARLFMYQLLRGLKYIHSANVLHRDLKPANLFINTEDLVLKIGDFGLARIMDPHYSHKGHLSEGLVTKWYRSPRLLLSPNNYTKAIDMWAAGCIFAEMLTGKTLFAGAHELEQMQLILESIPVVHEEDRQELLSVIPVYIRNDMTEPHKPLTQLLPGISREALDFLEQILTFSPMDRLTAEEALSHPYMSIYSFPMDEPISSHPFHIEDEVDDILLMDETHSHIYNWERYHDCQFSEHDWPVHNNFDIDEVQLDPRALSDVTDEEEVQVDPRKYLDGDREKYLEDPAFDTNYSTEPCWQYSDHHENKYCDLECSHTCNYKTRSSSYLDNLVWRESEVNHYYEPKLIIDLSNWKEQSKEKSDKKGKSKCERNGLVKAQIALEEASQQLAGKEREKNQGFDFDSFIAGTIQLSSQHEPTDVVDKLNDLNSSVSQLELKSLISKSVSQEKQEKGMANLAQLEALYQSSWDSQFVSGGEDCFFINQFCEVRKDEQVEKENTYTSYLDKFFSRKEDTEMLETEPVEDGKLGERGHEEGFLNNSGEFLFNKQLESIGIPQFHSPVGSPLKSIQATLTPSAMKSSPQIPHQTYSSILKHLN

[10] = target: Phosphatidylinositol 3-kinase C2 domain-containing subunit gamma (Homo sapiens) (UniProt O75747); settings: Compound concentration 1000.0 nM
[11] = target: Serine/threonine-protein kinase MRCK gamma (Homo sapiens) (UniProt Q6DT37); settings: Compound concentration 1000.0 nM
Sequence of Serine/threonine-protein kinase MRCK gamma (Homo sapiens) (Q6DT37 whole entry): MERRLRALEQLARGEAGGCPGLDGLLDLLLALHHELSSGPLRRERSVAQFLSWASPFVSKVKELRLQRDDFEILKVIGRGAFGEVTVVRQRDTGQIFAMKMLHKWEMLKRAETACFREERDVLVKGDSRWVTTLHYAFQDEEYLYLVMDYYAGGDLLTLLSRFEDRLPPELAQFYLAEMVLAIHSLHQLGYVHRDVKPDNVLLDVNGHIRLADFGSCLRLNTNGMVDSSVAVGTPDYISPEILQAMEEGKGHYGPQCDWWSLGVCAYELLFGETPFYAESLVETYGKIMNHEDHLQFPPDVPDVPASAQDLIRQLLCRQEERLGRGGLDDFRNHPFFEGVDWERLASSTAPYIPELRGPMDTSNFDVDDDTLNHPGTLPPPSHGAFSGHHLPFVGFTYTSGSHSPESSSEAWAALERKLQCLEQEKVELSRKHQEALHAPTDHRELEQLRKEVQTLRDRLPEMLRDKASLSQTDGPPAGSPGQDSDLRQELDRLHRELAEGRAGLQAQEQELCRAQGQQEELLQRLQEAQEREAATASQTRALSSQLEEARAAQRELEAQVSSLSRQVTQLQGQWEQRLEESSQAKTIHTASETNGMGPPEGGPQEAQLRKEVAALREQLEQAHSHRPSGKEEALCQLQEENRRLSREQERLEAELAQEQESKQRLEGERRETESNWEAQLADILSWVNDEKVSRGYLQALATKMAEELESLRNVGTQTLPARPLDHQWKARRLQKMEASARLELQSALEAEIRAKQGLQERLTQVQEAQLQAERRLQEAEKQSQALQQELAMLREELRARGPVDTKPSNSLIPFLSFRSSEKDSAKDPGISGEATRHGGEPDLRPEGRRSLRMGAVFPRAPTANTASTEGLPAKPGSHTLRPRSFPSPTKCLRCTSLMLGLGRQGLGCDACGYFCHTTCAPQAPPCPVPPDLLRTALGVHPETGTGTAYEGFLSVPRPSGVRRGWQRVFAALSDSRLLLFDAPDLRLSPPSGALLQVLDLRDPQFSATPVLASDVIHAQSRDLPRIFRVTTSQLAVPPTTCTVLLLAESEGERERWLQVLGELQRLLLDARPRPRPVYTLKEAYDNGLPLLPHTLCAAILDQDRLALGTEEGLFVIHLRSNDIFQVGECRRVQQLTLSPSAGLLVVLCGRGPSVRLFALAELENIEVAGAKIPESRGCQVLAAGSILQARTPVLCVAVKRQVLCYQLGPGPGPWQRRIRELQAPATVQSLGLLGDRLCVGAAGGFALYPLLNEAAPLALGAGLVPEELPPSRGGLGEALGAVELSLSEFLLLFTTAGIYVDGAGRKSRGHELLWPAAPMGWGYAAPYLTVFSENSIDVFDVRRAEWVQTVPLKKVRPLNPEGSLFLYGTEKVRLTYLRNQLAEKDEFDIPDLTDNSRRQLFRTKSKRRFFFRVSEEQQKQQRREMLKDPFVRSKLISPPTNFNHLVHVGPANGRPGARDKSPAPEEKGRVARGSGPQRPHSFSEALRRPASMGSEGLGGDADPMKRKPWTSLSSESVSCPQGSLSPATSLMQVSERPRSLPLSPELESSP

[12] = target: G protein-coupled receptor kinase 4 (Homo sapiens) (UniProt P32298); settings: Compound concentration 1000.0 nM
[13] = target: Serine/threonine-protein kinase 24 (Homo sapiens) (UniProt Q9Y6E0); settings: Compound concentration 1000.0 nM
[14] = target: Mitogen-activated protein kinase 3 (Homo sapiens) (UniProt P27361); settings: Compound concentration 1000.0 nM
[15] = target: Serine/threonine-protein kinase N2 (Homo sapiens) (UniProt Q16513); settings: Compound concentration 1000.0 nM
[16] = target: T4, Rhodopsin kinase GRK7 (Homo sapiens) (UniProt Q8WTQ7); settings: Compound concentration 1000.0 nM
T4 sequence (whole entry): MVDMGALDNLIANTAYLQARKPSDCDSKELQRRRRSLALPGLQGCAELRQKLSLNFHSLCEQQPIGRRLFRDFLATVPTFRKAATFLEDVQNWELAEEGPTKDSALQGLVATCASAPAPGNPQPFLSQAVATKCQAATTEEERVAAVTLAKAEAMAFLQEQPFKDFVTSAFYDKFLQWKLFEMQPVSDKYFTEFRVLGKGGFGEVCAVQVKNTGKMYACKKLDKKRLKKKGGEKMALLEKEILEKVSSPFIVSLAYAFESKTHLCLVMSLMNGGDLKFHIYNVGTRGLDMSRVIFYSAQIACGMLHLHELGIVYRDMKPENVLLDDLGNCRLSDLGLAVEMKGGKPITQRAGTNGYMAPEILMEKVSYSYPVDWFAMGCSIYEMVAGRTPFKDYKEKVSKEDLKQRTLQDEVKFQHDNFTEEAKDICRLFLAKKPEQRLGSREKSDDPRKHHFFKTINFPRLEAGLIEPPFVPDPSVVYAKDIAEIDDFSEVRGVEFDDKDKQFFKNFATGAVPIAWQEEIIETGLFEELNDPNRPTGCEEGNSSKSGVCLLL

[17] = target: Death-associated protein kinase 1 (Homo sapiens) (UniProt P53355); settings: Compound concentration 1000.0 nM
Sequence of Death-associated protein kinase 1 (Homo sapiens) (P53355 whole entry, looked up): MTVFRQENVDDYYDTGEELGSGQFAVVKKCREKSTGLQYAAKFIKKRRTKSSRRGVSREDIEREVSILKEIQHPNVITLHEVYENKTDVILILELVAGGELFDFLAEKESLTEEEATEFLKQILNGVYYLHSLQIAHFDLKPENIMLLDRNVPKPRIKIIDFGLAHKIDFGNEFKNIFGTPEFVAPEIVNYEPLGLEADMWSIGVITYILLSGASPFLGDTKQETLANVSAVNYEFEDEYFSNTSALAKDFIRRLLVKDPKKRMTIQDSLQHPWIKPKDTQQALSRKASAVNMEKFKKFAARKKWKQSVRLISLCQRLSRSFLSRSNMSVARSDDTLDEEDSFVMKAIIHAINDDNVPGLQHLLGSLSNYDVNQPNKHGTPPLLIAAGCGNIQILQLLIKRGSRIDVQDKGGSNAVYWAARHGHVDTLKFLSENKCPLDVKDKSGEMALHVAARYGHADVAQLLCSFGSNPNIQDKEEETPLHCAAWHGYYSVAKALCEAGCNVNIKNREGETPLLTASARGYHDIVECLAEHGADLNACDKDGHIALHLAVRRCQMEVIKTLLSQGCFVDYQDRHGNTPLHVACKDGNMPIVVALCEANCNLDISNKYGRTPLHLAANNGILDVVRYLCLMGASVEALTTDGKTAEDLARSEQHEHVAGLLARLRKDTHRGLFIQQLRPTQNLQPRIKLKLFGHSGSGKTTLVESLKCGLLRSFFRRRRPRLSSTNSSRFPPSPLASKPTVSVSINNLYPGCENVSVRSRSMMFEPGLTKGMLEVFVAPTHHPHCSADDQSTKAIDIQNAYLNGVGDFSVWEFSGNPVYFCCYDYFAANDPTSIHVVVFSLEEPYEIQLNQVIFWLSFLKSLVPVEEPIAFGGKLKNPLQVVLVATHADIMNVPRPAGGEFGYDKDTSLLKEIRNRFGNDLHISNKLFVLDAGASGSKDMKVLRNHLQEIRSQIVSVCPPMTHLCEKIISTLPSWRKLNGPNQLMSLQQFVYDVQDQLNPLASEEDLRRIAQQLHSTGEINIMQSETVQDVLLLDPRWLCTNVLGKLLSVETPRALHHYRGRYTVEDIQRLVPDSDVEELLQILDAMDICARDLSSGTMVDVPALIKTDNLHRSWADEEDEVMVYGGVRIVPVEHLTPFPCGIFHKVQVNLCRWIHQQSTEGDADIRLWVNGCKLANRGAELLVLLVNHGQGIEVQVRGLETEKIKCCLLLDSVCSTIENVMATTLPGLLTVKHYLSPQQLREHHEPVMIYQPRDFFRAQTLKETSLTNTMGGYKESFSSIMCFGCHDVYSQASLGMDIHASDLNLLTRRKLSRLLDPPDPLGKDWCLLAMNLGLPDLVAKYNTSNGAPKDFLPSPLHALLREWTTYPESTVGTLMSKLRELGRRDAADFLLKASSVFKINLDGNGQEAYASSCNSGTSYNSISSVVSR

[18] = target: Mitogen-activated protein kinase 4 (Homo sapiens) (UniProt P31152); settings: Compound concentration 1000.0 nM
Sequence of Mitogen-activated protein kinase 4 (Homo sapiens) (P31152 whole entry): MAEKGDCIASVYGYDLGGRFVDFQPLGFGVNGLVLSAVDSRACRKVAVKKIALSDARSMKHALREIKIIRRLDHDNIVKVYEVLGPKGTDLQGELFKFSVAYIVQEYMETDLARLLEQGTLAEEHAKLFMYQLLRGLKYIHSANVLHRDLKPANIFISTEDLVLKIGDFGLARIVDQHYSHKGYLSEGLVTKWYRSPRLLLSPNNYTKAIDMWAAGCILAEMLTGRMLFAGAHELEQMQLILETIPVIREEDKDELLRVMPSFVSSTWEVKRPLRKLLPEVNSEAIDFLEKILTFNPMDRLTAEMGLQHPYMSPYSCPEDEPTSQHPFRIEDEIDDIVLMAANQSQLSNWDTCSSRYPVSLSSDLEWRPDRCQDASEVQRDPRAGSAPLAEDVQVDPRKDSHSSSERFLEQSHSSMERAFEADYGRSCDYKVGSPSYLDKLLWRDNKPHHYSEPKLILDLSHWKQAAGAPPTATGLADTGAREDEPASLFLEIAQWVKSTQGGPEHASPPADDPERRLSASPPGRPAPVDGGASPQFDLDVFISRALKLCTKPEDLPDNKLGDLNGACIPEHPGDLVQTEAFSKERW

[19] = target: Protein kinase C eta type (Homo sapiens) (UniProt P24723); settings: Compound concentration 1000.0 nM
Sequence of Protein kinase C eta type (Homo sapiens) (P24723 whole entry): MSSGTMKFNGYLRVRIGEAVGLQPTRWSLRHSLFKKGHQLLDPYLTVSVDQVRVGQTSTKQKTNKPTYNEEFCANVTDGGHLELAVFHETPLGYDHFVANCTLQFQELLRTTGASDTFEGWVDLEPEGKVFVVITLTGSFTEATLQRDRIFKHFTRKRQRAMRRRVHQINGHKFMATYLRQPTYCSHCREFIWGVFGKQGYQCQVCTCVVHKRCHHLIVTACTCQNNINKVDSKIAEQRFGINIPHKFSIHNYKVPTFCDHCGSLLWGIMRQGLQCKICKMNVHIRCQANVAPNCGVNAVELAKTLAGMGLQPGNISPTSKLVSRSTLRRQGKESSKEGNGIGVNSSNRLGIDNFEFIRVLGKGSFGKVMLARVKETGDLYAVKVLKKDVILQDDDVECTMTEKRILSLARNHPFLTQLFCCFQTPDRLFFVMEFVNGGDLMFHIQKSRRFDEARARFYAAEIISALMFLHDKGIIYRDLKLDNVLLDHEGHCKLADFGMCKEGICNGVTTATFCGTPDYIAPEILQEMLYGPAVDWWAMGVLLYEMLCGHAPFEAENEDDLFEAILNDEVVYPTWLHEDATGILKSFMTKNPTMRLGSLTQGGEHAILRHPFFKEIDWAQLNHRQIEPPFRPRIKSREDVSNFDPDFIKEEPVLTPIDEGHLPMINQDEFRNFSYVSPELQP

Compound	residual activity [1] [%]	residual activity [2] [%]	residual activity [3] [%]	residual activity [4] [%]	residual activity [5] [%]	residual activity [6] [%]	residual activity [7] [%]	inhibition [8] [%]	residual activity [9] [%]	residual activity [10] [%]	residual activity [11] [%]	residual activity [12] [%]	residual activity [13] [%]	residual activity [14] [%]	residual activity [15] [%]	residual activity [16] [%]	residual activity [17] [%]	residual activity [18] [%]	residual activity [19] [%]
CN(C)C(=O)Cn1cc(-c2nc(C3(c4ccc(-c5cnc(N)nc5)cc4)CC3)no2)cn1 [BI 0153]	78	100	98	100	100	100	100	9.74	91	76	82	100	100	79	77	84	100	100	91
CN(C)C(=O)Cn1cc(-c2nc([C@@](C)(c3ccc(-c4cnc(N)nc4)cc3)C3CC3)no2)cn1 [BI 665915]	100	100	96	100	100	0	100	0.496	91	66	87	86	100	100	100	0	82	88	100
